Data from patent US6984500B2, “Method for detecting microorganisms and detection kit” (priority 2001, dated 2006).
In brackets after ≈: the same amount, converted by molar mass.

Legend:
[1] = system: A. fumigatus ATCC 26430; conditions: reference values of NCCLS M38-P; cited from earlier work
[2] = system: A. fumigatus ATCC 26430; experiment: Colorimetric microplate drug susceptibility test (WST-8 coloring reagent, sucrose YN broth, NaOH sensitizing solution); type: cell-based, Aspergillus Fumigatus; conditions: for Drug concentration at or above which almost no color was exhibited visually: visual reading
Experimental: (§1) Aspergillus Fumigatus ATCC26430 was used.
The drug solutions so prepared were pipetted into a plate at 0.02 mL/well and dried to a solid under reduced pressure for 24 hours. A coloring reagent (containing 0.7 mmol/L WST-8, 0.0035 mmol/L 1-methoxy PMS, 0.5 mmol/L potassium ferricyanide, and 0.5 mmol/L of potassium ferrocyanide) was pipetted into each of the wells at 0.02 mL/well and they were again dried to a solid under reduced pressure for 24 hours.
6.7 g of YN Base (manufactured by Difco) and 20 g of sucrose were dissolved in about 900 mL of purified water, and the pH was adjusted to 7.0 with a 1N aqueous solution of sodium hydroxide. The solution was made up to 1000 mL with purified water and then filter sterilized using a 0.2 μm filter.
A tester strain was cultured using Sabouraud Dextrose Agar (manufactured by OXOID) at 35° C. for 7 days. 2 mL of sterile physiological saline containing 0.1% Tween 80 was added dropwise onto the culture medium so as to float spores. The above-mentioned physiological saline that had been added dropwise onto the culture medium was recovered and allowed to stand for 3 to 5 minutes, and after removing the precipitate it was mixed using a Vortex mixer to give a spore suspension. Dilution was carried out so that the absorbance at 530 nm was 0.09 to 0.11. 0.1 mL of the spore suspension so prepared was taken using a micro pipette, added to 20 mL of sucrose YN broth, and stirred using a Vortex mixer to give an inoculum. 0.2 mL of the inoculum was pipetted into each of the wells of the microplate for the test described in B, the plate was covered, and culturing was carried out at 35° C.±1° C. for 24 hours. As a blank, sucrose YN broth was added instead of the inoculum.
After 24 hours 0.02 mL of a 1.5 mol/L aqueous solution of sodium hydroxide was added to each well, and 5 minutes after the addition the absorbance at 630 nm was measured.
2. For ITCZ, the 80% inhibitory concentration (IC80) was determined.

[3] = system: A. fumigatus ATCC 26430; experiment: NCCLS M-38P turbidity method (0.2 mL micro broth dilution) antifungal susceptibility test; type: cell-based; conditions: Aspergillus fumigatus, ATCC26430, repeated tests, determination time 46 to 50 hours
Experimental: as §1
A comparative example was carried out according to NCCLS M-38P (0.2 mL culture system micro broth dilution method).

In the case of `C[C@@H]1[C@H](O)[C@@H](C)/C=C/C=C/C=C/C=C/C=C/C=C/C=C/[C@H](O[C@@H]2O[C@H](C)[C@@H](O)[C@H](N)[C@@H]2O)C[C@@H]2O[C@](O)(C[C@@H](O)C[C@@H](O)[C@H](O)CC[C@@H](O)C[C@@H](O)CC(=O)O[C@H]1C)C[C@H](O)[C@H]2C(=O)O` [AMPH, Amphotericin B], the “Allowable range (MIC reference values described in NCCLS M38-P)” value [1] is listed as 0.5 to 2.0 µg/mL and the “Drug concentration at or above which almost no color was exhibited visually” value ([2]; 24 hours culture) is listed as no less than 0.5 µg/mL.

In the case of `CCC(C)n1ncn(-c2ccc(N3CCN(c4ccc(OCC5COC(Cn6cncn6)(c6ccc(Cl)cc6Cl)O5)cc4)CC3)cc2)c1=O` (stereo not drawn) [ITCZ, Itraconazole], the MIC [3] is reported as 0.12 to 0.25 µg/mL (≈ 0.17 to 0.354 µM), the “Drug concentration at or below which absorbance at 630 nm increased (FIG. 2)” value ([2]; 24 hours culture, absorbance at 630 nm) is reported as no more than 0.06 µg/mL and the “Drug concentration at or above which almost no color was exhibited visually” value ([2]; 24 hours culture) is reported as no less than 0.12 µg/mL. The MIC ([2]; Aspergillus fumigatus, ATCC26430, 24 h) was 0.12 to 0.25 µg/mL.
